# US11998008B2, “Pesticides and methods of controlling pests” (The State of Israel, Ministry of Agriculture & Rural …, priority 2017, dated 2024)
# Columns and labels:
# [1] = tested on: Sclerotium rolfsii sclerotia; experiment: Effect on Sclerotium rolfsii sclerotia buried in buckets; format: in vivo
# Procedure: The activity of trans-2-octenal was examined against phytopathogenic fungi and weeds. The experiment was performed in large buckets (110 L), which bottoms were removed, and therefore the loam in the bucket was continuous with the ground. The soil was inoculated one day prior the application of the compound. Soil inoculation was performed as follows: spores of Fusarium oxysporum […]-cucumerinum (FORC) were collected from culture plates and 25 mL of spore suspension at concentration of 9×10^5 was mixed with 10 L of tap water and then poured on the soil of each bucket. […] Half of the buckets were sealed with nylon while the other half remained open. Five days later, soil samples from three different depths (10, 20, and 30 cm) were taken from each bucket for fungal isolation and determination of fungal survival. […] After 3 days, the number of colonies was counted. […] Similar experiment was carried out with Sclerotium rolfsii as the phytopathogen fungus. The experiment was performed as above with the following modifications: 50 sclerotia of S. rolfsii were inserted into paper tea-bags and warped with nylon tights. Each bucket contained 9 tea-bags, 3 for each depth of 10, 20, and 30 cm. After burying the tea bags, the soil was watered with 10 L of tap water. […] Hyphal growth was detected after 2 days incubation at 25° C.
# [2] = tested on: lettuce seedling strain Raviv; conditions: in vivo, 11 days
# Procedure: An experiment in a larger scale was performed in loam soil in which the seedling were planted directly in the treated plot. The soil was treated with 0, 25, 50, 100, 200, 400, 800, and 1,600 ppm of emulsion of trans-2-octenal. The compound was applied using the irrigation system. A day later, tomato seedling strains Ikram and Abigail and lettuce seedling strain Raviv (10 seedlings each) were planted into the treated soil of each concentration. Eleven days later, the number of viable seedlings was counted.
# [3] = tested on: F. oxysporum f. sp. radicis-cucumerium; experiment: Fungicidal activity assay on PDA in sealed Petri dish (growth inhibition and mortality); format: cell-based, Fusarium oxysporum f. sp. radicis-cucumerinum; conditions: Fusarium oxysporum, NA + number = still viable in the highest concentration tested (given as >), read-out: M - Mortality, minimal concentration that killed the fungus
# tomato strain Abigail = experiment: Field phytotoxicity in loam soil, seedlings planted one day after application; format: in vivo; conditions: emulsion, viable seedlings counted eleven days after planting
# sclerotia of S. rolfsii = experiment: Open field experiment in sandy soil; format: in vivo, Sclerotium rolfsii; conditions: emulsion, 54 ppm active compound, 6 days
# Procedure: In this experiment, an emulsions of trans-2-octenal (25% active compound) such as those described in Example 9 were used. The soil was inoculated with chlamydospores of Forl and sclerotia of S. rolfsii. Five gram of soil, highly inoculated with chlamydospores were wrapped in nylon tights and buried in the field at depths of 10, 30, and 50 cm. Tea bags containing 50 S. rolfsii sclerotia were prepared as described above and buried similarly. After 6 days, trans-2-octenal emulsion, at concentration of 54 ppm (active compound) was applied using the irrigation system. The same conditions were applied to a control plot except that the plot was irrigated with tap water without the compound. The plots were left open during the time of the experiment. After 6 days, the pathogens were removed from the soil and their viability was examined using PDA+tet culture plates. […] As shown in these figures, elimination of both phytopathogenic fungi occurred at the lowest depth of 10 cm.
# B. cinerea = experiment: Fungicidal activity assay on PDA in sealed Petri dish (growth inhibition and mortality); format: cell-based, Botrytis cinerea; conditions: Botrytis cinerea, NA + number = still viable in the highest concentration tested (given as >), read-out: M - Mortality, minimal concentration that killed the fungus
# R. solani = experiment: microbe, parasite or virus in culture; format: cell-based; conditions: Rhizoctonia solani; R. solani; NA + number = still viable in the highest concentration tested (given as >); read-out: M - Mortality, minimal concentration that killed the fungus
# [4] = tested on: seeds of corn, cotton, and peanut; experiment: Phytotoxicity: seed germination in treated sandy soil in pots; format: in vivo; conditions: soil treated with 54 ppm, nine days
# Procedure: Sandy soil from a plot that was treated with 54 ppm of trans-2-octenal was removed to small pots in which either seeds of corn, cotton, and peanut were sown (FIGS. 16A-16C) or tomato seedlings were planted therein (FIG. 16E).
# [5] = tested on: Fusarium oxysporum f sp. radicis-cucumerinum (FORC); experiment: Effect on FORC in loam soil in buckets; format: in vivo
# Procedure: The activity of trans-2-octenal was examined against phytopathogenic fungi and weeds. The experiment was performed in large buckets (110 L), which bottoms were removed, and therefore the loam in the bucket was continuous with the ground. The soil was inoculated one day prior the application of the compound. Soil inoculation was performed as follows: spores of Fusarium oxysporum f sp. radicis-cucumerinum (FORC) were collected from culture plates and 25 mL of spore suspension at concentration of 9×10^5 was mixed with 10 L of tap water and then poured on the soil of each bucket. […] Half of the buckets were sealed with nylon while the other half remained open. Five days later, soil samples from three different depths (10, 20, and 30 cm) were taken from each bucket for fungal isolation and determination of fungal survival. […] After 3 days, the number of colonies was counted. […] Similar results were obtained at close condition, except at depth 30 cm at concentration of 62.5 ppm.
compound,measurement,setting,value
CCCCC/C=C/C=O [trans-2-octenal],viability of sclerotia,"[1]; depth 10 cm, open and close conditions, 125-250 ppm",reduced significantly
same,effect on viability of sclerotia,"[1]; depth 30 cm, close conditions only, 250 ppm",significant effect
same,concentration at which significant phytotoxic effect occurred,[2],400 ppm
same,MFC,[3],6.25 µg/mL
same,concentration at which significant phytotoxic effect occurred,tomato strain Abigail,400 ppm
same,viability of S. rolfsii sclerotia,sclerotia of S. rolfsii; 30 and 50 cm depth,No elimination
same,viability of S. rolfsii sclerotia,"sclerotia of S. rolfsii; depth 10 cm, open plot",elimination
same,MFC,B. cinerea,50 µg/mL
same,MFC,R. solani,6.25 µg/mL
same,number of seeds germinated in treated versus untreated soil,[4],did not differ significantly
same,concentration sufficient to eliminate FORC,"[5]; close condition, except at depth 30 cm",62.5 ppm
same,concentration sufficient to eliminate FORC,"[5]; open conditions, all depths examined (10, 20, 30 cm), 5 days",62.5 ppm
